Reference: patent US10233173B2, “Substituted 1,2,3-triazoles as NR2B-selective NMDA modulators” (JANSSEN PHARMACEUTICA NV, priority 2016, dated 2019)

Molecular target: human GluN1/GluN2B NMDA receptors (Homo sapiens, UniProt Q05586+Q13224)
Assay: Cell-based calcium flux (FLIPR) assay on cloned human NR1/NR2B ion channels expressed in mammalian cells
Conditions: standard assay; human GluN1/GluN2B, calcium flux (FLIPR), glutamate ~EC80
Procedure, shortened: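 Calcium influx followed by FLIPR fluorescence after 5 min compound exposure and a further 5 min co-agonist challenge: 10 μM glycine with glutamate at ~EC80 (standard) or EC40 (HTS).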

Chain of human GluN1/GluN2B NMDA receptors (Q13224 27-1484, other chains not shown): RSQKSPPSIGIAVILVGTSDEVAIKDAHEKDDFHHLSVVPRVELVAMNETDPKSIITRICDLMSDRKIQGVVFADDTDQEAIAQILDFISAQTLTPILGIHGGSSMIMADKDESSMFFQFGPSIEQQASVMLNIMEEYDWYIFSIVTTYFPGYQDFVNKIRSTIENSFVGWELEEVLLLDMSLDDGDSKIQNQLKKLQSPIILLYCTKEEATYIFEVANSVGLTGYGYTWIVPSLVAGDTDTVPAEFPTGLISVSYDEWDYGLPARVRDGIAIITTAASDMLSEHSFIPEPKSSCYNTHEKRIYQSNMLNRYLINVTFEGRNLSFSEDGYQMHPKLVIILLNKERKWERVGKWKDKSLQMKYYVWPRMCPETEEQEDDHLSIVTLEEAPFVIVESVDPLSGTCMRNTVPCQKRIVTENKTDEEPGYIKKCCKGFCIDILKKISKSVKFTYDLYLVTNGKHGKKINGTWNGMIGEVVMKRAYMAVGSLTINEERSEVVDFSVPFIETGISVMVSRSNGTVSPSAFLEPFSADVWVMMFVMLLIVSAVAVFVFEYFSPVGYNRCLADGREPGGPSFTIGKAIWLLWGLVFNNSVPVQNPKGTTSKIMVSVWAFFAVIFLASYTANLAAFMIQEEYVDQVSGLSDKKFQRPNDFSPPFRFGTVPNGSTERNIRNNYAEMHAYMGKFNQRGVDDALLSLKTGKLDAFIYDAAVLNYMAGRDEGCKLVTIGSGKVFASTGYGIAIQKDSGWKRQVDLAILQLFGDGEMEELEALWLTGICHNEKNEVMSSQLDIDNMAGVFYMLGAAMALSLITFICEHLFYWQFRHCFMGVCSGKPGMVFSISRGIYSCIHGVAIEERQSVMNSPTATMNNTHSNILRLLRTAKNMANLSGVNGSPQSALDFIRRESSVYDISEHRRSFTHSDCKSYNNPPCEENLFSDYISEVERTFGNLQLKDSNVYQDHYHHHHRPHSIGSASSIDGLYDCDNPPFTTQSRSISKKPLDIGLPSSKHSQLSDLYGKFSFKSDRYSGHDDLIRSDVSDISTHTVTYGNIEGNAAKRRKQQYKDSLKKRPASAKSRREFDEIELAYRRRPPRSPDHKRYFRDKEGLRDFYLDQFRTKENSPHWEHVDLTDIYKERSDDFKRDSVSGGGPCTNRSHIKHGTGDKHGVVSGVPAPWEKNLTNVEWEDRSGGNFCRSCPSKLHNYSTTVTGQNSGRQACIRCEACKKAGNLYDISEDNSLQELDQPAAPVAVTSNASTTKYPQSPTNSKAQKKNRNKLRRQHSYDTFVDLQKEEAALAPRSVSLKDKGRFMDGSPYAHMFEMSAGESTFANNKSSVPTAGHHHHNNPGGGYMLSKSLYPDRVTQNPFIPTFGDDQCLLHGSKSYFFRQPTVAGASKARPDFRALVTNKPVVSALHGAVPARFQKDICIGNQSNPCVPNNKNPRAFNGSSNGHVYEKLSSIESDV

Row | Structure (SMILES) | IC50
1 | Cc1cnc(NCc2cn(-c3ccc(F)c(C)c3)nn2)nc1 [Example 198, N-[[1-(4-Fluoro-3-methyl-phenyl)triazol-4-yl]methyl]-5-methyl-pyrimidin-2-amine] | 0.147 µM
2 | Cc1cc(-n2cc(CNc3ncc(Cl)c(C)n3)nn2)ccc1F [Example 199, 5-Chloro-N-[[1-(4-fluoro-3-methyl-phenyl)triazol-4-yl]methyl]-4-methyl-pyrimidin-2-amine] | 0.051 µM
3 | FC(F)c1cc(-n2cc(CNc3ncc(Cl)cn3)nn2)ccc1Cl [Example 200, 5-Chloro-N-[[1-[4-chloro-3-(difluoromethyl)phenyl]triazol-4-yl]methyl]pyrimidin-2-amine] | 0.131 µM
4 | Cc1ccnc(NCc2cn(-c3ccc(Cl)c(C(F)F)c3)nn2)n1 [Example 201, N-[[1-[4-Chloro-3-(difluoromethyl)phenyl]triazol-4-yl]methyl]-4-methyl-pyrimidin-2-amine] | 0.1 µM
5 | CCc1cnc(NCc2cn(-c3ccc(Cl)c(C(F)F)c3)nn2)nc1 [Example 202, N-[[1-[4-Chloro-3-(difluoromethyl)phenyl]triazol-4-yl]methyl]-5-ethyl-pyrimidin-2-amine] | 0.044 µM
6 | COc1cnc(NCc2cn(-c3ccc(Cl)c(C(F)F)c3)nn2)nc1 [Example 203, N-[[1-[4-Chloro-3-(difluoromethyl)phenyl]triazol-4-yl]methyl]-5-methoxy-pyrimidin-2-amine] | 0.03 µM
7 | FC(F)c1cnc(NCc2cn(-c3ccc(Cl)c(C(F)F)c3)nn2)nc1 [Example 204, N-[[1-[4-Chloro-3-(difluoromethyl)phenyl]triazol-4-yl]methyl]-5-(difluoromethyl)pyrimidin-2-amine] | 0.24 µM
8 | FC(F)c1cc(-n2cc(CNc3ncc(C(F)(F)F)cn3)nn2)ccc1Cl [Example 205, N-[[1-[4-Chloro-3-(difluoromethyl)phenyl]triazol-4-yl]methyl]-5-(trifluoromethyl)pyrimidin-2-amine] | 0.616 µM
9 | Cc1cnc(NCc2cn(-c3ccc(F)c(C(C)(F)F)c3)nn2)nc1 [Example 206, N-[[1-[3-(1,1-Difluoroethyl)-4-fluoro-phenyl]triazol-4-yl]methyl]-5-methyl-pyrimidin-2-amine] | 0.219 µM
10 | CCc1cnc(NCc2cn(-c3ccc(F)c(C(C)(F)F)c3)nn2)nc1 [Example 207, N-[[1-[3-(1,1-Difluoroethyl)-4-fluoro-phenyl]triazol-4-yl]methyl]-5-ethyl-pyrimidin-2-amine] | 0.128 µM
11 | CC(C)c1cnc(NCc2cn(-c3ccc(F)c(C(C)(F)F)c3)nn2)nc1 [Example 208, N-[[1-[3-(1,1-Difluoroethyl)-4-fluoro-phenyl]triazol-4-yl]methyl]-5-isopropyl-pyrimidin-2-amine] | 0.581 µM
12 | CC(F)(F)c1cc(-n2cc(CNc3ncc(C4CC4)cn3)nn2)ccc1F [Example 209, 5-Cyclopropyl-N-[[1-[3-(1,1-difluoroethyl)-4-fluoro-phenyl]triazol-4-yl]methyl]pyrimidin-2-amine] | 0.104 µM
13 | Cc1cnc(NCc2cn(-c3ccc(F)c(C(C)(F)F)c3)nn2)nc1C [Example 210, N-[[1-[3-(1,1-Difluoroethyl)-4-fluoro-phenyl]triazol-4-yl]methyl]-4,5-dimethyl-pyrimidin-2-amine] | 0.05 µM
14 | Cc1cnc(NCc2cn(-c3ccc(F)c(C(F)F)c3)nn2)nc1 [Example 211, N-[[1-[3-(Difluoromethyl)-4-fluoro-phenyl]triazol-4-yl]methyl]-5-methyl-pyrimidin-2-amine] | 0.049 µM
15 | Fc1ccc(-n2cc(CNc3ncc(Cl)cn3)nn2)cc1C(F)F [Example 212, 5-Chloro-N-[[1-[3-(difluoromethyl)-4-fluoro-phenyl]triazol-4-yl]methyl]pyrimidin-2-amine] | 0.074 µM
16 | Fc1ccc(-n2cc(CNc3ncc(C(F)(F)F)cn3)nn2)cc1C(F)F [Example 213, N-[[1-[3-(Difluoromethyl)-4-fluoro-phenyl]triazol-4-yl]methyl]-5-(trifluoromethyl)pyrimidin-2-amine] | 0.108 µM
17 | CC(C)(O)c1cnc(NCc2cn(-c3ccc(F)c(C(F)F)c3)nn2)nc1 [Example 214, 2-[2-[[1-[3-(Difluoromethyl)-4-fluoro-phenyl]triazol-4-yl]methylamino]pyrimidin-5-yl]propan-2-ol] | 0.654 µM
18 | Fc1ccc(-n2cc(CNc3ccccn3)nn2)cc1C(F)F [Example 215, N-((1-(3-(Difluoromethyl)-4-fluorophenyl)-1H-1,2,3-triazol-4-yl)methyl)pyridin-2-amine] | 0.986 µM
19 | CCc1cnc(NCc2cn(-c3ccc(F)c(C(F)F)c3)nn2)nc1 [Example 216, N-((1-(3-(Difluoromethyl)-4-fluorophenyl)-1H-1,2,3-triazol-4-yl)methyl)-5-ethylpyrimidin-2-amine] | 0.026 µM
20 | Cc1cnc(NCc2cn(-c3ccc(F)c(C(F)F)c3)nn2)nc1C [Example 217, N-((1-(3-(Difluoromethyl)-4-fluorophenyl)-1H-1,2,3-triazol-4-yl)methyl)-4,5-dimethylpyrimidin-2-amine] | 0.012 µM
21 | Cc1nc(NCc2cn(-c3ccc(F)c(C(F)F)c3)nn2)ncc1Cl [Example 218, 5-Chloro-N-((1-(3-(difluoromethyl)-4-fluorophenyl)-1H-1,2,3-triazol-4-yl)methyl)-4-methylpyrimidin-2-amine] | 0.011 µM
22 | Cn1nccc1NCc1cn(-c2ccc(F)c(C(F)F)c2)nn1 [Example 219, N-((1-(3-(Difluoromethyl)-4-fluorophenyl)-1H-1,2,3-triazol-4-yl)methyl)-1-methyl-1H-pyrazol-5-amine] | > 10 µM
23 | Cn1ccnc1NCc1cn(-c2ccc(F)c(C(F)F)c2)nn1 [Example 220, N-((1-(3-(Difluoromethyl)-4-fluorophenyl)-1H-1,2,3-triazol-4-yl)methyl)-1-methyl-1H-imidazol-2-amine] | 3.65 µM
24 | Fc1ccc(-n2cc(CNc3ccccn3)nn2)cc1OC(F)F [Example 221, N-((1-(3-(Difluoromethoxy)-4-fluorophenyl)-1H-1,2,3-triazol-4-yl)methyl)pyridin-2-amine] | 0.724 µM
25 | Cc1cnc(NCc2cn(-c3ccc(F)c(OC(F)F)c3)nn2)nc1 [Example 222, N-((1-(3-(Difluoromethoxy)-4-fluorophenyl)-1H-1,2,3-triazol-4-yl)methyl)-5-methylpyrimidin-2-amine] | 0.064 µM
26 | Cn1nccc1NCc1cn(-c2ccc(F)c(OC(F)F)c2)nn1 [Example 223, N-((1-(3-(Difluoromethoxy)-4-fluorophenyl)-1H-1,2,3-triazol-4-yl)methyl)-1-methyl-1H-pyrazol-5-amine] | 11.8 µM
27 | Cc1cnc(N[C@H](C)c2cn(-c3ccc(Cl)c(OC(F)F)c3)nn2)nc1 [Example 224, N-[(1R)-1-[1-[4-Chloro-3-(difluoromethoxy)phenyl]triazol-4-yl]ethyl]-5-methyl-pyrimidin-2-amine] | 0.121 µM
28 | Clc1ccc(-n2cc(COc3ncc(Cl)cn3)nn2)cc1 [Example 225, 5-Chloro-2-[[1-(4-chlorophenyl)triazol-4-yl]methoxy]pyrimidine] | 0.07 µM
29 | FC(F)(F)c1cnc(OCc2cn(-c3ccc(Cl)cc3)nn2)nc1 [Example 226, 2-[[1-(4-Chlorophenyl)triazol-4-yl]methoxy]-5-(trifluoromethyl)pyrimidine] | 0.155 µM
